Source: patent US20030190344A1, “Animal feed or feed additive as performance enhancer or appetite enhancer for live stock” (priority 2000, published 2003)

System: aromatic aminoacid-decarboxylase
Experiment: Blockade of aromatic aminoacid-decarboxylase activity
Type: biochemical
Source text: This blockade of the aromatic aminoacid-decarboxylase is irreversible and thus is of special interest since it is maintained as long as the enzyme molecules are in the effective range of the benzophenanthridine alkaloids. Sanguinarine and chelerythrine, representative of the benzophenanthridine alkaloids, have an aromatic structure which is similar to that of the aromatic amino acids. The enzyme “aromatic aminoacid-decarboxylase” confuses the ultimate structure of the benzophenanthridine alkaloid with the ring structure of the aromatic amino acid and fits it rather than the amino acids at its active center.

## COc1ccc2c(c[n+](C)c3c4cc5c(cc4ccc23)OCO5)c1OC [chelerythrine]
  block the activity of the aromatic aminoacid-decarboxylase: 92%
  reversibility of blockade of the aromatic aminoacid-decarboxylase: irreversible
